Experimental data as given in patent US4141993A, “Compounds of diphenylcyclopentylamine type and methods for their preparation” (priority 1971, dated 1979).
Read-outs that look alike come from different tables or passages of the source.

What was measured:
Acute toxicity in mice = details: mouse, in vivo, iv, within 24 hours
Protocol: (§1) Acute toxicity, behavior and anticholinergic effect (mydriasis) in mice
(§2) The compounds were given by intravenous route to 3 mice. […] Seizures, gait, sedation and grip strength were recorded. […] PD200 is the dose which increases the pupil by 200%.

uptake of tritiated 5-HT [1] = test: Inhibition of the uptake of tritiated 5-HT in vivo (drug i.p., uptake in midbrain slices); set-up: species or system mice; details: for ED50: Mus musculus, ip, 0.5 h, read-out: Inhibition (50 %) of uptake in vivo, 5-HT (ED50), i.p., half an hour before the animals were killed
Protocol: (§3) 1. Inhibition of the uptake of tritiated 5-HT in vitro and in vivo
(§4) The drugs were administered intraperitoneally half an hour before the animals were killed and the midbrain was taken out and sliced and incubated in a mixture consisting of, per 100 mg of brain slices, 0.2 μmole of ^3 H-5-HT and 1 μmole of glucose in 2 ml of Krebs-Henseleit buffer, pH 7.4. The incubation time was 5 minutes with 5 minutes of preincubation before ^3 H-5-HT was added. The radioactive ^3 H-5-HT taken up in the slices was extracted with ethanol and the amount was determined by liquid scintillation. […] Active uptake is defined as that part of the radioactive uptake which is inhibited by a high concentration of cocaine. All doses were given at least to four animals.

[2] = system: uptake of tritiated noradrenaline; test: Inhibition of the uptake of tritiated noradrenaline in vitro (cortex slices); type: biochemical; details: for Inhibition (50 %) of uptake in vitro, NA: dl-noradrenaline 10^-7 M
Protocol: (§5) 2. Inhibition of the uptake of tritiated noradrenaline in vitro and in vivo
(§6) The method is found in European Journal of Pharmacology 2 (1967), 181- 186. The animals were killed half or one hour after the administration of the drugs in vivo (i.p.). The slices, made from cortex, were preincubated for five minutes and incubated with 0.1 μmole per ml of ^3 H-noradrenaline for further five minutes. The incubation mixture consisted of 0.2 μmole of ^3 H-NA and the brain slices in 2 ml of Krebs-Henseleits buffer, pH 7.4. The radioactive ^3 H-NA taken up in the slices was extracted with ethanol and the amount was determined by liquid scintillation. The dose producing 50 percent decrease of the active uptake (ED50) was determined graphically from dose response curves. At least four animals were used at each dose level.
Inhibition (50 %) of uptake
^2) Na = dl-noradrenaline 10^-7 M

[3] = system: uptake of tritiated noradrenaline; test: Inhibition of the uptake of tritiated noradrenaline in vivo (drug i.p., uptake in cortex slices); details: for ED50: ip, 1 h, read-out: Inhibition (50 %) of uptake in vivo, NA (ED50), i.p., half or one hour before the animals were killed; for selectivity towards noradrenaline: uptake inhibition, compared with imipramine
Protocol: as §5
as §6, with “The” for “The method is found in European Journal of Pharmacology 2 (1967), 181- 186. The”

mice [4] = test: Motor activity in mice (exploratory activity, locomotion cage); type: in vivo; details: Mus musculus, ip, 1 h, read-out: Motor activity ID50
Protocol: The exploratory activity of mice was recorded in a locomotion cage in which the movements were counted each time the animals cross-circuit an electrical current in the bottom plate. The activity was recorded for ten minutes one hour after the administration of the drug. The animals were tested individually. Groups of six mice were used and the mice were only used once. The activity was expressed in percent of the activity of control groups ran simultaneously.

5-HTP response = 5-HTP response potentiation test; type: in vivo, mice; details: 0 = without effect; for 5-HTP potentiation, 25 mg/kg i.p., 1h: drug 1 h before 5-HTP; for 5-HTP potentiation, 25 mg/kg i.p., 4h: drug 4 h before 5-HTP
Protocol: 1. 5-HTP response potentiation test
Inhibition of the uptake of 5-HT potentiates the effects of administered 5-hydroxytryptophane (5-HTP) probably by increasing the amount of 5-HT at the receptor.
These small movements are quantitatively measured in an activity box, type Animex, which can distinguish between small and gross movements. The activity is measured during 20 minutes and only in the case the animals have a fullblown syndrome.

uptake of tritiated 5-HT [5] = test: Inhibition of the uptake of tritiated 5-HT in vitro (midbrain slices); type: biochemical, mice; details: for Inhibition (50 %) of uptake in vitro, 5-HT: 5-hydroxytryptamine 10^-7 M
Protocol: as §3
as §4, with “The drugs were administered intraperitoneally half an hour before the animals were killed and the midbrain was taken” left out, “0.2 μmole of ^3 H-5-HT and 1 μmole of glucose in” left out

Dopa response = Dopa response potentiation test; type: in vivo, mice; details: for L-DOPA potentiation, 10 mg/kg i.p., 1h / L-DOPA potentiation, 10 mg/kg i.p., 4h: score, pargyline pretreated; for L-DOPA potentiation, 10 mg/kg i.p., 1h: drug 1 h before 1-Dopa 100 mg/kg i.p.; for L-DOPA potentiation, 10 mg/kg i.p., 4h: drug 4 h before 1-Dopa 100 mg/kg i.p.; for L-DOPA potentiation, entry given as a bound (no score): printed in the 1h column, head 10 mg/kg i.p.
Protocol: Mice in groups of 3 are pretreated with Pargyline® 40 mg/kg p.o. about 10-16 hours before the test. […] 1-Dopa gives a characteristic syndrome which is scored as follows:
1. piloerection, slight salivation, slight increased motor activity
2. piloerection, salivation, marked increased motor activity and irritability
3. piloerection, profuse salivation, marked irritability and reactivity, jumping, squeaking, fighting.
The control groups are Amitriptyline (20 mg/kg i.p. 4 hours before 1-Dopa) and saline (1 hour before 1-Dopa). […] The test drugs were all tested at 10 mg/kg i.p.

mice [6] = test: Anticholinergic effect (mydriasis) in mice; type: in vivo
Protocol: as §1, §2

uptake of tritiated 5-HT [7] = test: Inhibition of the uptake of tritiated 5-HT in vivo (drug i.p., uptake in midbrain slices); set-up: species or system mice
[8] = i.p., one hour after administration
[9] = i.v., 10 minutes after injection, dose which increases the pupil by 200%

Compound | LD50 at 24 h (Acute toxicity in mice) [mg/kg] | ED50 (uptake of tritiated 5-HT [1]) [mg/kg] | Inhibition (50 %) of uptake in vitro, NA [2] [µg/mL] | inhibition of uptake of noradrenaline in vitro, in words [2] | ED50 [3] [mg/kg] | ED50 (mice [4]; [8]) [mg/kg] | 5-HTP potentiation, 25 mg/kg i.p., 1h (5-HTP response) | Inhibition (50 %) of uptake in vitro, 5-HT (uptake of tritiated 5-HT [5]) [µg/mL] | inhibition of uptake of 5-hydroxytryptamine in vitro, in words (uptake of tritiated 5-HT [5]) | L-DOPA potentiation, 10 mg/kg i.p., 1h (Dopa response) | L-DOPA potentiation, 10 mg/kg i.p., 4h (Dopa response) | Mydriasis PD200 (mice [6]; mouse, in vivo, iv, 10 min) [mg/kg] | inhibition of uptake of noradrenaline in vivo, in words [3] | other results
CNC1CCC(c2ccccc2)(c2ccccc2)C1 (stereo not drawn) [PUB 107, 1-methylamino-3,3-diphenylcyclopentane] | 30 | > 40 | 0.7 | potent inhibitors | 20 | > 50 | 0 | 1 | potent inhibitors | 2 | 2 | 15 |  | 
COc1ccc(C2(c3ccccc3)CCC(N)C2)cc1 (stereo not drawn) [PUT 104, 1-amino-3-(4-methoxyphenyl)-3-phenylcyclopentane] | > 40 | > 40 | 1 | potent inhibitors | > 40 |  | > 25 | 0.5 | potent inhibitors |  |  | > 40 |  | L-DOPA potentiation, entry given as a bound (no score) (Dopa response): > 10
NC1CCC(c2ccccc2)(c2ccc(Cl)cc2)C1 (stereo not drawn) [PUN 122, 1-amino-3-(4-chlorophenyl)-3-phenylcyclopentane] | 15 | 20 | 0.3 | potent inhibitors | 30 | > 50 | 25 | 0.7 | potent inhibitors | 3 | 3 | > 12.5 | strong inhibition | uptake inhibition still pronounced after (uptake of tritiated 5-HT [7]): 16 h; time of maximal uptake inhibition (uptake of tritiated 5-HT [7]; uptake inhibition increases with time): four; duration of inhibition of the uptake mechanism compared with imipramine (uptake of tritiated 5-HT [7]; uptake of 5-HT and noradrenaline): much longer time than does the reference substance imipramine; inhibition of uptake of 5-hydroxytryptamine in vivo, in words (uptake of tritiated 5-HT [1]): strong inhibition; selectivity towards noradrenaline [3]: substantially nonselective ability towards noradrenaline
CNCC1CCC(c2ccccc2)(c2ccccc2)C1 (stereo not drawn) [PUE 122, 1-methylaminomethyl-3,3-diphenylcyclopentane] | 15 | > 40 | 0.05 | strongly effective | 5.5 | > 50 | 0 | 4.2 | considerably weaker effect | 3 | 3 | > 12.5 | Strong inhibition of the uptake of noradrenaline only | 
CNC1CCC(c2ccccc2)(c2ccc(Cl)cc2)C1 (stereo not drawn) [PUN 125, 1-methylamino-3-(4-chlorophenyl)-3-phenylcyclopentane] |  | > 40 | 1 |  | > 40 |  | 0 | 2 |  | 1 | 1 |  |  | 
CN(C)CC1CCC(c2ccccc2)(c2ccccc2)C1 (stereo not drawn) [PUE 117, 1-dimethylaminomethyl-3,3-diphenylcyclopentane] | 30 | > 40 | 2.3 |  | 17 |  | 0 | 3.6 |  | 3 | 1.5 |  |  | ED50 (mice [4]): > 50 mg/kg; Mydriasis PD200 (mice [6]; [9]): < 1 mg/kg
CN(C)C1CCC(c2ccccc2)(c2ccccc2)C1 (stereo not drawn) [PUB 112, 1-dimethylamino-3,3-diphenylcyclopentane] | 18 | > 40 | 0.4 | potent inhibitors | 25 |  | 25 | 0.7 | potent inhibitors | 2.5 | 2 |  |  | ED50 (mice [4]): > 50 mg/kg; Mydriasis PD200 (mice [6]; [9]): < 1 mg/kg
NCC1CCC(c2ccccc2)(c2ccccc2)C1 (stereo not drawn) [PUE 119, 1-aminomethyl-3,3-diphenylcyclopentane] | 22 | > 40 | 0.025 | strongly effective |  |  | 0 | 0.34 | considerably weaker effect | 1.5 | 1.5 |  | Strong inhibition of the uptake of noradrenaline only | ED50 (mice [4]): > 50 mg/kg; 5-HTP potentiation, 25 mg/kg i.p., 4h (5-HTP response): 0; Mydriasis PD200 (mice [6]; [9]): 2.5 mg/kg
NC1CCC(c2ccc(Cl)cc2)(c2ccc(Cl)cc2)C1 (stereo not drawn) [PUT 108, 1-amino-3,3-di(4-chlorophenyl)cyclopentane] | 23 | > 40 | 2.5 |  | > 40 | > 50 | > 25 | 1 |  |  |  | > 23 |  | L-DOPA potentiation, entry given as a bound (no score) (Dopa response): > 10
CN(C)C1CCC(c2ccccc2)(c2ccc(Cl)cc2)C1 (stereo not drawn) [PUN 123, 1-dimethylamino-3-(4-chlorophenyl)-3-phenylcyclopentane] | 30 | 40 | 1 | potent inhibitors | 30 | > 50 | 25 | 1 | potent inhibitors |  | 3 | < 10 | strong inhibition | inhibition of uptake of 5-hydroxytryptamine in vivo, in words (uptake of tritiated 5-HT [1]): strong inhibition; selectivity towards noradrenaline [3]: substantially nonselective ability towards noradrenaline; 5-HTP potentiation, 25 mg/kg i.p., 4h (5-HTP response): 0
CN(C)CCC=C1c2ccccc2CCc2ccccc21 [Amitriptyline, reference compound] |  |  |  |  |  |  |  |  |  |  |  |  |  | Dopa response score of control (Dopa response; 20 mg/kg i.p. 4 hours before 1-Dopa): three
